Results reported in patent US20230125667A1, “NOVEL TDZD ANALOGS AS AGENTS THAT DELAY, PREVENT, OR REVERSE AGE-ASSOCIATED DISEASES AND AS ANTI-CANCER AND ANTILEUKEMIC AGENTS” (United States Government as represented by the Department …, priority 2020, published 2023).

Experiments:
CCRF-CEM = experiment: NCI-60 growth inhibition: CCRF-CEM (Leukemia); assay type: cell-based, human; conditions: Homo sapiens
K-562 = experiment: NCI-60 growth inhibition: K-562 (Leukemia); assay type: cell-based, human; conditions: Homo sapiens, K562
MOLT-4 = experiment: NCI-60 growth inhibition: MOLT-4 (Leukemia); assay type: cell-based, human; conditions: Homo sapiens
RPMI-8226 = experiment: NCI-60 growth inhibition: RPMI-8226 (Leukemia); assay type: cell-based, human; conditions: Homo sapiens
EKVX = experiment: NCI-60 growth inhibition: EKVX (Non-Small-Cell Lung Cancer); assay type: cell-based, human; conditions: Homo sapiens
HOP-92 = experiment: NCI-60 growth inhibition: HOP-92 (Non-Small-Cell Lung Cancer); assay type: cell-based, human; conditions: Homo sapiens
NCI-H23 = experiment: NCI-60 growth inhibition: NCI-H23 (Non-Small-Cell Lung Cancer); assay type: cell-based, human; conditions: Homo sapiens
NCI-H460 = experiment: NCI-60 growth inhibition: NCI-H460 (Non-Small-Cell Lung Cancer); assay type: cell-based, human; conditions: Homo sapiens
COLO 205 = experiment: NCI-60 growth inhibition: COLO 205 (Colon Cancer); assay type: cell-based, human; conditions: Homo sapiens
HCT-15 = experiment: NCI-60 growth inhibition: HCT-15 (Colon Cancer); assay type: cell-based, human; conditions: Homo sapiens
HT29 = experiment: NCI-60 growth inhibition: HT29 (Colon Cancer); assay type: cell-based, human; conditions: Homo sapiens, HT-29
SW-620 = experiment: NCI-60 growth inhibition: SW-620 (Colon Cancer); assay type: cell-based, human; conditions: Homo sapiens
SF-268 = experiment: NCI-60 growth inhibition: SF-268 (CNS Cancer); assay type: cell-based, human; conditions: Homo sapiens
SF-539 = experiment: NCI-60 growth inhibition: SF-539 (CNS Cancer); assay type: cell-based, human; conditions: Homo sapiens
SNB-19 = experiment: NCI-60 growth inhibition: SNB-19 (CNS Cancer); assay type: cell-based, human; conditions: Homo sapiens
U251 = experiment: NCI-60 growth inhibition: U251 (CNS Cancer); assay type: cell-based, human; conditions: Homo sapiens, U-251
LOX IMVI = experiment: NCI-60 growth inhibition: LOX IMVI (Melanoma); assay type: cell-based, human; conditions: Homo sapiens
MALME-3M = experiment: NCI-60 growth inhibition: MALME-3M (Melanoma); assay type: cell-based, human; conditions: Homo sapiens
M14 = experiment: NCI-60 growth inhibition: M14 (Melanoma); assay type: cell-based, human; conditions: Homo sapiens
MDA-MB-435 = experiment: NCI-60 growth inhibition: MDA-MB-435 (Melanoma); assay type: cell-based, human; conditions: Homo sapiens
SK-MEL-2 = experiment: NCI-60 growth inhibition: SK-MEL-2 (Melanoma); assay type: cell-based, human; conditions: Homo sapiens
SK-MEL-28 = experiment: NCI-60 growth inhibition: SK-MEL-28 (Melanoma); assay type: cell-based, human; conditions: Homo sapiens
SK-MEL-5 = experiment: NCI-60 growth inhibition: SK-MEL-5 (Melanoma); assay type: cell-based, human; conditions: Homo sapiens
UACC-257 = experiment: NCI-60 growth inhibition: UACC-257 (Melanoma); assay type: cell-based, human; conditions: Homo sapiens
UACC-62 = experiment: NCI-60 growth inhibition: UACC-62 (Melanoma); assay type: cell-based, human; conditions: Homo sapiens
IGROV1 = experiment: NCI-60 growth inhibition: IGROV1 (Ovarian Cancer); assay type: cell-based, human; conditions: Homo sapiens, IGROV-1
OVCAR-3 = experiment: NCI-60 growth inhibition: OVCAR-3 (Ovarian Cancer); assay type: cell-based, human; conditions: Homo sapiens
OVCAR-4 = experiment: NCI-60 growth inhibition: OVCAR-4 (Ovarian Cancer); assay type: cell-based, human; conditions: Homo sapiens
OVCAR-5 = experiment: NCI-60 growth inhibition: OVCAR-5 (Ovarian Cancer); assay type: cell-based, human; conditions: Homo sapiens
OVCAR-8 = experiment: NCI-60 growth inhibition: OVCAR-8 (Ovarian Cancer); assay type: cell-based, human; conditions: Homo sapiens
786-0 = experiment: NCI-60 growth inhibition: 786-0 (Renal Cancer); assay type: cell-based, human; conditions: Homo sapiens
A498 = experiment: NCI-60 growth inhibition: A498 (Renal Cancer); assay type: cell-based, human; conditions: Homo sapiens
ACHN = experiment: NCI-60 growth inhibition: ACHN (Renal Cancer); assay type: cell-based, human; conditions: Homo sapiens
CAKI-1 = experiment: NCI-60 growth inhibition: CAKI-1 (Renal Cancer); assay type: cell-based, human; conditions: Homo sapiens
RXF 393 = experiment: NCI-60 growth inhibition: RXF 393 (Renal Cancer); assay type: cell-based, human; conditions: Homo sapiens
SN12C = experiment: NCI-60 growth inhibition: SN12C (Renal Cancer); assay type: cell-based, human; conditions: Homo sapiens
TK-10 = experiment: NCI-60 growth inhibition: TK-10 (Renal Cancer); assay type: cell-based, human; conditions: Homo sapiens
UO-31 = experiment: NCI-60 growth inhibition: UO-31 (Renal Cancer); assay type: cell-based, human; conditions: Homo sapiens
PC-3 = experiment: NCI-60 growth inhibition: PC-3 (Prostate Cancer); assay type: cell-based, human; conditions: Homo sapiens
DU-145 = experiment: NCI-60 growth inhibition: DU-145 (Prostate Cancer); assay type: cell-based, human; conditions: Homo sapiens
MCF7 = experiment: NCI-60 growth inhibition: MCF7 (Breast Cancer); assay type: cell-based, human; conditions: Homo sapiens
MDA-MB-231/ATCC = experiment: NCI-60 growth inhibition: MDA-MB-231/ATCC (Breast Cancer); assay type: cell-based, human; conditions: Homo sapiens
HS 578T = experiment: NCI-60 growth inhibition: HS 578T (Breast Cancer); assay type: cell-based, human; conditions: Homo sapiens
BT-549 = experiment: NCI-60 growth inhibition: BT-549 (Breast Cancer); assay type: cell-based, human; conditions: Homo sapiens
T-47D = experiment: NCI-60 growth inhibition: T-47D (Breast Cancer); assay type: cell-based, human; conditions: Homo sapiens, T47D
MDA-MB-468 = experiment: NCI-60 growth inhibition: MDA-MB-468 (Breast Cancer); assay type: cell-based, human; conditions: Homo sapiens; MDA-MB-468 (Breast Cancer); read-out: GI50
[1] = system: MV4-11 cell line (myelomonocytic leukemia); conditions: MV4-11 cells, 24 h, MMB-TDZD analogs (Table 2)
HCT-116 = experiment: NCI-60 growth inhibition: HCT-116 (Colon Cancer); conditions: Homo sapiens, HCT-116
NCI-H522 = experiment: NCI-60 growth inhibition: NCI-H522 (Non-Small-Cell Lung Cancer); conditions: Homo sapiens, NCI-H522

C=C1C(=O)O[C@H]2[C@H]1CC/C(COC(=O)NCc1ccc(Cn3c(=O)sn(CCI)c3=O)cc1)=C\CC[C@@]1(C)O[C@@H]21 [BSK-187]
GI50 (CCRF-CEM): 500 nM
GI50 (K-562): 650 nM
GI50 (MOLT-4): 1350 nM
GI50 (RPMI-8226): 1980 nM
GI50 (EKVX): 2110 nM
GI50 (HOP-92): 1380 nM
GI50 (NCI-H23): 3460 nM
GI50 (NCI-H460): 6420 nM
GI50 (COLO 205): 1860 nM
GI50 (HCT-15): 1910 nM
GI50 (HT29): 2100 nM
GI50 (SW-620): 1660 nM
GI50 (SF-268): 2410 nM
GI50 (SF-539): 1720 nM
GI50 (SNB-19): 6880 nM
GI50 (U251): 4670 nM
GI50 (LOX IMVI): 1690 nM
GI50 (MALME-3M): 1680 nM
GI50 (M14): 1820 nM
GI50 (MDA-MB-435): 2450 nM
GI50 (SK-MEL-2): 11700 nM
GI50 (SK-MEL-28): 2060 nM
GI50 (SK-MEL-5): 5370 nM
GI50 (UACC-257): 2240 nM
GI50 (UACC-62): 1980 nM
GI50 (IGROV1): 2080 nM
GI50 (OVCAR-3): 1640 nM
GI50 (OVCAR-4): 2020 nM
GI50 (OVCAR-5): 3280 nM
GI50 (OVCAR-8): 4550 nM
GI50 (786-0): 1820 nM
GI50 (A498): 4440 nM
GI50 (ACHN): 1890 nM
GI50 (CAKI-1): 3790 nM
GI50 (RXF 393): 1610 nM
GI50 (SN12C): 2160 nM
GI50 (TK-10): 1910 nM
GI50 (UO-31): 1650 nM
GI50 (PC-3): 1750 nM
GI50 (DU-145): 1820 nM
GI50 (MCF7): 1710 nM
GI50 (MDA-MB-231/ATCC): 1770 nM
GI50 (HS 578T): 7290 nM
GI50 (BT-549): 2400 nM
GI50 (T-47D): 1320 nM
GI50 (MDA-MB-468): 1250 nM
LD50, 7AAD (μM) 24 h ([1]; 7AAD): 2.37 µM
LD50, Alamar blue (μM) 24 h ([1]; Alamar blue): 1.0 µM
LD50, YOPRO (μM) 24 h ([1]; YOPRO): 1.21 µM
GI50 (HCT-116): 1760 nM
GI50 (NCI-H522): 1720 nM
